Like-named read-outs stand apart in the source and are kept apart here. Each block holds one compound with its values, some of them ahead of it.
Tests used:
[1] = system: Human Peripheral Blood Mononuclear Cell (PBMC); assay: Toxicity on peripheral blood mononuclear cells (MTT); assay type: cell-based; conditions: for Absorbance 490 nm, replicate 1 / Absorbance 490 nm, replicate 2 / Absorbance 490 nm, replicate 3 / Absorbance 490 nm, replicate 4 / Mean value (absorbance) / Cell viability (%): 24 hrs, MTT; for Cell viability (%): relative to negative control
Protocol: General operations: normal peripheral blood cells were isolated by Ficoll to obtain mononuclear cells. The mononuclear cells were rinsed by the PBS for three times, and added with IMDM+10% FBS to prepare suspensions. […] The suspensions were then inoculated into 96-well plates, with each hole containing 25 thousands cells per 100 μL of the culture medium, and cultured overnight at 37° C.
Treatment: because the proliferation of the PBMCs is very limited and the PBMCs quickly enter a decline phase. Thus, the cell viability was measured by the MTT assay after 24 hrs of culture. […] The group where PBMCs were treated by the sterile deionized water was selected as the negative control group.
1. Experimental cells: normal peripheral blood cells were isolated by Ficoll to obtain mononuclear cells. The mononuclear cells were rinsed by the PBS for three times, added with IMDM+10% FBS to prepare suspensions, […].
2. […] Then the 96-well plates were transferred into an incubator at 37° C. for culture. […] After another 24 hrs of cultivation, 20 μL of MTT was added to each hole, and the plates were incubated for 3 hrs in the incubator (37° C., 5% CO2). Solution in each hole was then removed and replaced by 150 μL of DMSO.

[2] = system: human breast carcinoma cell line MCF-7; assay: Inhibition rate at 10 μM versus chemotherapeutic drugs, MCF-7 (MTT); assay type: cell-based; conditions: MCF7, MCF-7, 10 μM of drug
Description: (§1) As a drug for target therapy, the erlotinib is applicable to a third-line treatment of locally advanced or metastatic non-small cell lung cancer when two or more than two chemotherapies are failed. Currently, the gemcitabine is clinically utilized as the drug of the first-line therapy in treating advanced non-small cell lung cancer and the metastatic breast cancer. […] 1. Experimental cell lines and related chemical reagents: sources and cultivation of the human lung adenocarcinoma cells A549, the human lung squamous carcinoma cell line H460, the human breast carcinoma cell line MCF-7 are described in the above. […] Then the 96-well plates were transferred into the incubator (37° C., 5% CO2) for culture. […] The anti-tumor effects of the above drugs were measured by the MTT assay. The number of viable cells in the negative control groups at 0 hr was taken as a basis to calculate the anti-tumor effects.

[3] = system: rat cardiomyocytes; conditions: for Relative ratio of ATP/total protein, Mean value (%) / Relative ratio of ATP/total protein, replicate 1 / Relative ratio of ATP/total protein, replicate 2 / Relative ratio of ATP/total protein, replicate 3: both, SD, rat
Protocol: General operations: 1-2 day old neonatal SD rats (female or male) were selected and cardiomyocytes were isolated in sterile condition. […] The cardiotoxicity of the above drugs were represented by a ratio of ATP/total protein. […] The group where […] were treated by the sterile deionized water was selected as the negative control group.
1. Experimental cells: 1-2 day old neonatal SD rats (female or male) were selected and sterilized. Then ventricular muscles were collected and digested by trypsin to prepare cardiomyocyte suspensions. The suspensions were cultured in the incubator (37° C., 5% CO2), and primary cardiomyocytes were cultured by differential adhesion.
2. […] After another 6 hrs of cultivation, the culture solution in each hole was replaced by the normal culture solution not containing any drugs, and incubated for 42 hrs in the incubator (37° C., 5% CO2). Solution in each hole was then removed, and cells therein were rinsed by the PBS for three times, digested by the trypsin, and gathered into two parts. One part of the cells was utilized to measure the ATP level by the reporter gene assay, and the other part of the cells was utilized to measure the cellular protein concentration by BAC assay. The ratio of ATP (ng) to the protein concentration (μg) was calculated, and the ratio of each experimental group is divided by the ratio of the contrast group to obtain the relative ratio of ATP/total protein, experimental results were listed in Table 4.

[4] = system: human lung squamous carcinoma cell line H460; assay: Inhibition rate at 10 μM versus chemotherapeutic drugs, H460 (MTT); assay type: cell-based; conditions: NCI-H460, H460, 10 μM of drug
Description: as §1

[5] = system: human lung adenocarcinoma cells A549; assay: Inhibition rate at 10 μM versus chemotherapeutic drugs, A549 (MTT); assay type: cell-based; conditions: A549, 10 μM of drug
Description: as §1

[6] = system: human lung adenocarcinoma cells A549; assay: MTT growth inhibition of A549 cells (IC50); assay type: cell-based; conditions: 48 hrs of treatment
Protocol: (§2) 2. […] Solution in each hole was then removed and replaced by 150 μL of DMSO.

[7] = system: human lung squamous carcinoma cells H460; assay: MTT growth inhibition of H460 cells (IC50); assay type: cell-based; conditions: NCI-H460, 48 hrs of treatment
Protocol: as §2

[8] = system: human liver cancer cells HepG2; assay: MTT growth inhibition of HepG2 cells (IC50); assay type: cell-based; conditions: 48 hrs of treatment
Protocol: as §2

[9] = system: human breast cancer cells MCF-7; assay: MTT growth inhibition of MCF-7 cells (IC50); assay type: cell-based; conditions: MCF7, 48 hrs of treatment
Protocol: as §2

[10] = system: human cervical cancer cells HeLa; assay: MTT growth inhibition of HeLa cells (IC50); assay type: cell-based; conditions: 48 hrs of treatment
Protocol: as §2

[11] = system: human pancreatic cancer cells PANC-1; assay: cells; assay type: cell-based; conditions: 48 hrs of treatment, MTT, read-out: IC50 on the growth of the PANC-1 cells
Protocol: as §2

[12] = system: human lung squamous carcinoma cells H460 xenograft; assay: H460 xenograft tumor growth in nude mice; assay type: in vivo; conditions: 75 mg/kg oral, three times each week
Protocol: 1.1 Preparation of experimental animals: 30 nude mice with equal numbers of females and males were fed in normal conditions in the laboratory for between 3 and 5 days.
Preparation of H460 cells: H460 tumor cells were normally cultured, and diluted using the PBS so as to prepare a suspension of tumor cells having a concentration of 7.5×10^6 tumor cells per milliliter.
1.3 Inoculation of tumor cells: the suspension of the tumor cells was fully shaken and 0.2 mL of the suspension was then sucked by a sterile syringe having a capacity of 1 mL. The tumor cells were then inoculated into armpits of the nude mice via subcutaneous injection. The inoculated mice were then fed for between 2 and 3 days in normal conditions. When the tumor tissue grew to a size with a long axis of approximately 3 mm and a short axis of approximately 2 mm, all the nude mice having the tumor tissues were randomly divided into three groups, which were utilized in subsequent administration experiments.
2.1 Control group: five male mice and five female mice having tumor tissues were orally administered with ultrapure water for three times each week (respectively at Monday, Wednesday, and Friday afternoons), and the administered volume was 0.3 mL for each time.
3.2. Acquisition of sizes of tumor tissues in the nude mice: the sizes of the tumor tissues in the nude mice were measured three times per week (respectively at Monday, Wednesday, and Friday afternoons). An electronic vernier caliper was utilized to measure the long axis and the short axis of the tumor tissues, and an accuracy of the data was 0.01 mm.
3.4 Finish time of the experiments: when the tumor tissues in the nude mice of the control group reach an average size of 1000 mm^3 (Volume=long axis×short axis 2×0.5236), the weights and the sizes of the tumor tissues of the nude mice were recorded, and then the experiments were stopped and the nude mice were treated.
3.5 Treatment of nude mice when finishing the experiments: the nude mice were killed, arranged according to different groups, and photographed. Six representative mice were selected from each group and photographed. Then the tumor tissues were respectively isolated, weighed, placed at corresponding positions, and photographed.

[13] = contrast chemotherapeutic drugs, 10 μM (other concentrations)

Structure (SMILES): O=c1[nH]cc(F)c(=O)[nH]1 [5-FU, 5-fluorouracil]
Absorbance 490 nm, replicate 1 [1, 13]: 0.493 | Absorbance 490 nm, replicate 2 [1, 13]: 0.484 | Absorbance 490 nm, replicate 3 [1, 13]: 0.525 | Absorbance 490 nm, replicate 4 [1, 13]: 0.461 | Mean value (absorbance) [1, 13]: 0.491 | Cell viability (%) [1, 13]: 61.4% | inhibition at 10 µM [2]: 15.8%

Relative ratio of ATP/total protein, Mean value (%) ([3]; 10 μM): 46.97% | Relative ratio of ATP/total protein, replicate 1 ([3]; 10 μM): 47.3% | Relative ratio of ATP/total protein, replicate 2 ([3]; 10 μM): 43.1% | Relative ratio of ATP/total protein, replicate 3 ([3]; 10 μM): 50.5%
Structure (SMILES): COc1cccc2c1C(=O)c1c(O)c3c(c(O)c1C2=O)C[C@@](O)(C(=O)CO)C[C@@H]3O[C@H]1C[C@H](N)[C@H](O)[C@H](C)O1 [Adriamycin, adriamycin]
Absorbance 490 nm, replicate 1 [1, 13]: 0.482 | Absorbance 490 nm, replicate 2 [1, 13]: 0.482 | Absorbance 490 nm, replicate 3 [1, 13]: 0.496 | Absorbance 490 nm, replicate 4 [1, 13]: 0.530 | Mean value (absorbance) [1, 13]: 0.498 | Cell viability (%) [1, 13]: 62.3% | Toxicity on the cardiomyocytes [3]: obvious toxicity on the cardiomyocytes

Structure (SMILES): C#Cc1cccc(Nc2ncnc3cc(OCCOC)c(OCCOC)cc23)c1 [Erlotinib, erlotinib]
inhibition at 10 µM [4]: 33.1% | inhibition at 10 µM [5]: 30.3%

Structure (SMILES): Nc1ccn([C@@H]2O[C@H](CO)[C@@H](O)C2(F)F)c(=O)n1 [Gemcitabine, gemcitabine]
inhibition at 10 µM [2]: 40.1% | inhibition at 10 µM [4]: 4.3% | inhibition at 10 µM [5]: 6.9%

Structure (SMILES): CC(=O)O[C@H]1C(=O)[C@@]2(C)[C@H]([C@H](OC(=O)c3ccccc3)[C@]3(O)C[C@H](OC(=O)[C@H](O)[C@@H](NC(=O)c4ccccc4)c4ccccc4)C(C)=C1C3(C)C)[C@]1(OC(C)=O)CO[C@@H]1C[C@@H]2O [Paclitaxel, paclitaxel]
Absorbance 490 nm, replicate 1 [1, 13]: 0.712 | Absorbance 490 nm, replicate 2 [1, 13]: 0.743 | Absorbance 490 nm, replicate 3 [1, 13]: 0.683 | Absorbance 490 nm, replicate 4 [1, 13]: 0.650 | Mean value (absorbance) [1, 13]: 0.697 | Cell viability (%) [1, 13]: 87.2% | inhibition at 10 µM [2]: 89.6% | inhibition at 10 µM [4]: 17.3% | inhibition at 10 µM [5]: 28.8%

IC50 [6]: 14.7 µM | Relative ratio of ATP/total protein, Mean value (%) ([3]; 10 μM): 89.87% | Relative ratio of ATP/total protein, replicate 1 ([3]; 10 μM): 90.0% | Relative ratio of ATP/total protein, replicate 2 ([3]; 10 μM): 88.2% | Relative ratio of ATP/total protein, replicate 3 ([3]; 10 μM): 91.4% | Relative ratio of ATP/total protein, Mean value (%) ([3]; 30 μM): 83.33% | Relative ratio of ATP/total protein, replicate 1 ([3]; 30 μM): 85.1% | Relative ratio of ATP/total protein, replicate 2 ([3]; 30 μM): 83.3% | Relative ratio of ATP/total protein, replicate 3 ([3]; 30 μM): 81.6% | Relative ratio of ATP/total protein, Mean value (%) ([3]; 50 μM): 76.03% | Relative ratio of ATP/total protein, replicate 1 ([3]; 50 μM): 77.5% | Relative ratio of ATP/total protein, replicate 2 ([3]; 50 μM): 76.7% | Relative ratio of ATP/total protein, replicate 3 ([3]; 50 μM): 73.9% | IC50 [7]: 34.6 µM | IC50 [8]: 47.3 µM | IC50 [9]: 19.5 µM | IC50 [10]: 25.8 µM | IC50 [11]: 6.73 µM
Structure (SMILES): C[S+]([O-])CCCCN=C=S (centres unmarked) [Sulforaphane, 1-isothiocyanato-4-(methysulfinyl)-butane]
Absorbance 490 nm, replicate 1 ([1]; 10 μM): 0.702 | Absorbance 490 nm, replicate 2 ([1]; 10 μM): 0.633 | Absorbance 490 nm, replicate 3 ([1]; 10 μM): 0.705 | Absorbance 490 nm, replicate 4 ([1]; 10 μM): 0.593 | Mean value (absorbance) ([1]; 10 μM): 0.658 | Cell viability (%) ([1]; 10 μM): 82.4% | Absorbance 490 nm, replicate 1 ([1]; 30 μM): 0.655 | Absorbance 490 nm, replicate 2 ([1]; 30 μM): 0.616 | Absorbance 490 nm, replicate 3 ([1]; 30 μM): 0.58 | Absorbance 490 nm, replicate 4 ([1]; 30 μM): 0.628 | Mean value (absorbance) ([1]; 30 μM): 0.620 | Cell viability (%) ([1]; 30 μM): 77.6% | Absorbance 490 nm, replicate 1 ([1]; 50 μM): 0.663 | Absorbance 490 nm, replicate 2 ([1]; 50 μM): 0.621 | Absorbance 490 nm, replicate 3 ([1]; 50 μM): 0.610 | Absorbance 490 nm, replicate 4 ([1]; 50 μM): 0.610 | Mean value (absorbance) ([1]; 50 μM): 0.626 | Cell viability (%) ([1]; 50 μM): 78.4% | Effect on the proliferation of the PBMCs ([1]; Table 3 summary): certain effect on the proliferation of the cells | Tumor volume on 1st day ([12]; day 1): 30.55 mm^3 | Tumor volume on 3rd day ([12]; day 3): 78.81 mm^3 | Tumor volume on 6st day ([12]; day 6): 257.8812 mm^3 | Tumor volume on 8th day ([12]; day 8): 389.6022 mm^3 | Tumor volume on 10th day ([12]; day 10): 552.7308 mm^3

Reference: patent US9655875B2, “Method of treating or preventing tumors using 1-(alkylsulfinyl)-2-isothiocyanatoalkyl-1-alkene” (BEIJING UNIVERSITY OF CHEMICAL TECHNOLOGY, priority 2013, dated 2017)
